Tested on: not listed separately
Assay: DRUGMATRIX: Sodium/nucleoside co-transporter radioligand binding (ligand: nitrobenzylthioinosine)
Type: cell membranes, Cavia porcellus, Dunkin-Hartley, Cerebral cortex, Membrane
Conditions: Not Active = under 50% inhibition at 10 µM
For CC(C)C[C@H]1C(=O)N2CCC[C@H]2[C@]2(O)O[C@](NC(=O)[C@@H]3C=C4c5cccc6[nH]cc(c56)C[C@H]4N(C)C3)(C(C)C)C(=O)N12 [ERGOCRYPTINE], the IC50 was “Not Active” and the Ki was “Not Active”. In the case of COC(=O)Nc1nc2cc(C(=O)c3ccc(F)cc3)ccc2[nH]1 [FLUBENDAZOLE], the IC50 is reported as “Not Active” and the Ki is reported as “Not Active”. With CC(=O)OCC(=O)[C@@]1(O)CC[C@H]2[C@@H]3CCC4=CC(=O)CC[C@]4(C)[C@@]3(F)[C@@H](O)C[C@@]21C [FLUDROCORTISONE ACETATE] the IC50 was “Not Active” and the Ki was “Not Active”. With CCOC(=O)c1ncn2c1CN(C)C(=O)c1cc(F)ccc1-2 [FLUMAZENIL] the IC50 was “Not Active” and the Ki was “Not Active”. In the case of Cc1ccc(C)c(OCCCC(C)(C)C(=O)O)c1 [GEMFIBROZIL], the IC50 is reported as “Not Active” and the Ki is reported as “Not Active”.

Target: T1, Alpha-1B adrenergic receptor (Rattus norvegicus, UniProt P15823)
T1 sequence (P15823 whole entry): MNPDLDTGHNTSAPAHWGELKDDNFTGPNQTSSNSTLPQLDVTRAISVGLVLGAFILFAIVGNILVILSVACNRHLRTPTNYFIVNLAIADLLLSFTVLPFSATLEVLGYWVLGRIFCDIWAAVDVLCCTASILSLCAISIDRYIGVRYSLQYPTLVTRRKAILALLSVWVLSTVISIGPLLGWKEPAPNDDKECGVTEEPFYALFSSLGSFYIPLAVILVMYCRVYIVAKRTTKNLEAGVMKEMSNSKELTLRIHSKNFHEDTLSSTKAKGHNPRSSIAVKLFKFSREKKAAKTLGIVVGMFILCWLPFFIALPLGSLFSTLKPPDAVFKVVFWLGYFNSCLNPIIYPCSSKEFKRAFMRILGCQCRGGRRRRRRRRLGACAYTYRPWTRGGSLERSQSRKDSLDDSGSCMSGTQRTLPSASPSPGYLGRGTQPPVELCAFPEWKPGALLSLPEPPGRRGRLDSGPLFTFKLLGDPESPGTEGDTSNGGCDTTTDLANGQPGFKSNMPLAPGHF
Assay: DRUGMATRIX: Alpha-1B adrenergic receptor radioligand binding (ligand: prazosin)
Type: cell membranes, Wistar, Liver, Membrane
Conditions: Not Active = under 50% inhibition at 10 µM
For COC(=O)Nc1nc2cc(C(=O)c3ccc(F)cc3)ccc2[nH]1 [FLUBENDAZOLE], the IC50 was “Not Active”. With CC(=O)OCC(=O)[C@@]1(O)CC[C@H]2[C@@H]3CCC4=CC(=O)CC[C@]4(C)[C@@]3(F)[C@@H](O)C[C@@]21C [FLUDROCORTISONE ACETATE] the IC50 was “Not Active”. In the case of CCOC(=O)c1ncn2c1CN(C)C(=O)c1cc(F)ccc1-2 [FLUMAZENIL], the IC50 is reported as “Not Active”. With Cc1ccc(C)c(OCCCC(C)(C)C(=O)O)c1 [GEMFIBROZIL] the IC50 was “Not Active”.

Same assay, conditions: Not Active = under 50% inhibition at 10 µM; read-out: IC50
CC(C)C[C@H]1C(=O)N2CCC[C@H]2[C@]2(O)O[C@](NC(=O)[C@@H]3C=C4c5cccc6[nH]cc(c56)C[C@H]4N(C)C3)(C(C)C)C(=O)N12 [ERGOCRYPTINE] showed an IC50 of 14 nM.

Same assay, conditions: Not Active = under 50% inhibition at 10 µM; read-out: Ki
In the case of CC(C)C[C@H]1C(=O)N2CCC[C@H]2[C@]2(O)O[C@](NC(=O)[C@@H]3C=C4c5cccc6[nH]cc(c56)C[C@H]4N(C)C3)(C(C)C)C(=O)N12 [ERGOCRYPTINE], the Ki is reported as 7.94 nM.

Target: Aldo-keto reductase family 1 member B1 (Rattus norvegicus, UniProt P07943);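 note: inhibition of aldose reductase enzyme activity, measured with DL-glyceraldehyde as the substrate; in other assays of this panel Not Active means under 50% inhibition at 10 µM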
Assay: biochemical
Type: tissue-based, Lens of camera-type eye
Conditions: not given
For CC(C)C[C@H]1C(=O)N2CCC[C@H]2[C@]2(O)O[C@](NC(=O)[C@@H]3C=C4c5cccc6[nH]cc(c56)C[C@H]4N(C)C3)(C(C)C)C(=O)N12 [ERGOCRYPTINE], the IC50 was “Not Active”. For COC(=O)Nc1nc2cc(C(=O)c3ccc(F)cc3)ccc2[nH]1 [FLUBENDAZOLE], the IC50 was “Not Active”. For CC(=O)OCC(=O)[C@@]1(O)CC[C@H]2[C@@H]3CCC4=CC(=O)CC[C@]4(C)[C@@]3(F)[C@@H](O)C[C@@]21C [FLUDROCORTISONE ACETATE], the IC50 was “Not Active”. With CCOC(=O)c1ncn2c1CN(C)C(=O)c1cc(F)ccc1-2 [FLUMAZENIL] the IC50 was “Not Active”. For Cc1ccc(C)c(OCCCC(C)(C)C(=O)O)c1 [GEMFIBROZIL], the IC50 was “Not Active”.

Target: T2, Type-2 angiotensin II receptor (Homo sapiens, UniProt P50052); note: in other assays of this panel Not Active means under 50% inhibition at 10 µM
T2 sequence (P50052 whole entry): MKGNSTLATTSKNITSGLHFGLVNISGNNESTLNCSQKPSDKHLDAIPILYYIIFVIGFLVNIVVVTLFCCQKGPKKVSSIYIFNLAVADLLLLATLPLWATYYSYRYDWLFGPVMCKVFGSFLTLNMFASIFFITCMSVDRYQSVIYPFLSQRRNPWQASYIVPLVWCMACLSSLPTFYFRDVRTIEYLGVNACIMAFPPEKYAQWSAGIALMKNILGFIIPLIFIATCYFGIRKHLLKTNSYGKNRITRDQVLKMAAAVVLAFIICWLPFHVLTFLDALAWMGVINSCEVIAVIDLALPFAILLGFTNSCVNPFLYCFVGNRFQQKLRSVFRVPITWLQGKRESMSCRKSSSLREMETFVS
Assay: biochemical
Type: cell-based, CHO-K1
Conditions: cho-k1
With CC(C)C[C@H]1C(=O)N2CCC[C@H]2[C@]2(O)O[C@](NC(=O)[C@@H]3C=C4c5cccc6[nH]cc(c56)C[C@H]4N(C)C3)(C(C)C)C(=O)N12 [ERGOCRYPTINE] the IC50 was “Not Active”. With COC(=O)Nc1nc2cc(C(=O)c3ccc(F)cc3)ccc2[nH]1 [FLUBENDAZOLE] the IC50 was “Not Active”. With CC(=O)OCC(=O)[C@@]1(O)CC[C@H]2[C@@H]3CCC4=CC(=O)CC[C@]4(C)[C@@]3(F)[C@@H](O)C[C@@]21C [FLUDROCORTISONE ACETATE] the IC50 was “Not Active”. For CCOC(=O)c1ncn2c1CN(C)C(=O)c1cc(F)ccc1-2 [FLUMAZENIL], the IC50 was “Not Active”. For Cc1ccc(C)c(OCCCC(C)(C)C(=O)O)c1 [GEMFIBROZIL], the IC50 was “Not Active”.

Target: T3, Thromboxane-A synthase (Homo sapiens, UniProt P24557);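 note: enzyme inhibition assay with PGH2 supplied as substrate; in other assays of this panel Not Active means under 50% inhibition at 10 µM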
T3 sequence (P24557 whole entry): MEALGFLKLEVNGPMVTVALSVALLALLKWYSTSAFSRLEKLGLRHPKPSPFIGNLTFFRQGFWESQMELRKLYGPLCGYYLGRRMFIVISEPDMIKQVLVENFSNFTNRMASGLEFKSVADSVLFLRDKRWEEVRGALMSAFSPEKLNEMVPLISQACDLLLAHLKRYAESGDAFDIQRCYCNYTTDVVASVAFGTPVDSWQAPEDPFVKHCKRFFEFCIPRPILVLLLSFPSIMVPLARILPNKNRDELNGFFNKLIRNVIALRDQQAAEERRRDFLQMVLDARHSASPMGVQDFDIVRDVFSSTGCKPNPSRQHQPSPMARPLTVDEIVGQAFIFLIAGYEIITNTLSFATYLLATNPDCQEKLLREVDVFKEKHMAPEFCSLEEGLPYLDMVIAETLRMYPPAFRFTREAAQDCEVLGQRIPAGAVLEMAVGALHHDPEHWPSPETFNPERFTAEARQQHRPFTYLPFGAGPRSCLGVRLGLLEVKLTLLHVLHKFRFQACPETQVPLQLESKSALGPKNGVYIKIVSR
Assay: biochemical
Type: tissue-based, Platelet
Conditions: platelet
With CC(C)C[C@H]1C(=O)N2CCC[C@H]2[C@]2(O)O[C@](NC(=O)[C@@H]3C=C4c5cccc6[nH]cc(c56)C[C@H]4N(C)C3)(C(C)C)C(=O)N12 [ERGOCRYPTINE] the IC50 was “Not Active”. With COC(=O)Nc1nc2cc(C(=O)c3ccc(F)cc3)ccc2[nH]1 [FLUBENDAZOLE] the IC50 was “Not Active”. In the case of CC(=O)OCC(=O)[C@@]1(O)CC[C@H]2[C@@H]3CCC4=CC(=O)CC[C@]4(C)[C@@]3(F)[C@@H](O)C[C@@]21C [FLUDROCORTISONE ACETATE], the IC50 is reported as “Not Active”. For CCOC(=O)c1ncn2c1CN(C)C(=O)c1cc(F)ccc1-2 [FLUMAZENIL], the IC50 was “Not Active”. In the case of Cc1ccc(C)c(OCCCC(C)(C)C(=O)O)c1 [GEMFIBROZIL], the IC50 is reported as “Not Active”.

Target: 5-hydroxytryptamine receptor 1B (Rattus norvegicus, UniProt P28564); note: in other assays of this panel Not Active means under 50% inhibition at 10 µM
Sequence (P28564 whole entry): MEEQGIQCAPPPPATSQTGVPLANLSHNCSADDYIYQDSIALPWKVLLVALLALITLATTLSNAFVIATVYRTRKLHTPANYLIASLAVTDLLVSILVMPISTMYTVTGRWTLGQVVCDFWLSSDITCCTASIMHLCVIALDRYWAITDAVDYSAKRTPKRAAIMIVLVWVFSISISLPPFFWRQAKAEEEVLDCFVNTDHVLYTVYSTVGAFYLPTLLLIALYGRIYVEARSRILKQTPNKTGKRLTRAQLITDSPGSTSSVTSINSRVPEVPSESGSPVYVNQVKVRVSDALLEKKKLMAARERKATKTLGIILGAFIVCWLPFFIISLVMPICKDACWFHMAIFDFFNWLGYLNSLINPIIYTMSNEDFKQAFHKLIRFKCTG
Assay: not given
Type: cell membranes, Wistar, Cerebral cortex, Membrane
Conditions: not given
In the case of COC(=O)Nc1nc2cc(C(=O)c3ccc(F)cc3)ccc2[nH]1 [FLUBENDAZOLE], the IC50 is reported as “Not Active”. For CC(=O)OCC(=O)[C@@]1(O)CC[C@H]2[C@@H]3CCC4=CC(=O)CC[C@]4(C)[C@@]3(F)[C@@H](O)C[C@@]21C [FLUDROCORTISONE ACETATE], the IC50 was “Not Active”. For CCOC(=O)c1ncn2c1CN(C)C(=O)c1cc(F)ccc1-2 [FLUMAZENIL], the IC50 was “Not Active”. For Cc1ccc(C)c(OCCCC(C)(C)C(=O)O)c1 [GEMFIBROZIL], the IC50 was “Not Active”.

Same assay, conditions: read-out: IC50
CC(C)C[C@H]1C(=O)N2CCC[C@H]2[C@]2(O)O[C@](NC(=O)[C@@H]3C=C4c5cccc6[nH]cc(c56)C[C@H]4N(C)C3)(C(C)C)C(=O)N12 [ERGOCRYPTINE] showed an IC50 of 8.2 nM.

Same assay, conditions: read-out: Ki
With CC(C)C[C@H]1C(=O)N2CCC[C@H]2[C@]2(O)O[C@](NC(=O)[C@@H]3C=C4c5cccc6[nH]cc(c56)C[C@H]4N(C)C3)(C(C)C)C(=O)N12 [ERGOCRYPTINE] the Ki was 5.02 nM.

Target: T4, Androgen receptor (Rattus norvegicus, UniProt P15207); note: in other assays of this panel Not Active means under 50% inhibition at 10 µM
T4 sequence (P15207 whole entry): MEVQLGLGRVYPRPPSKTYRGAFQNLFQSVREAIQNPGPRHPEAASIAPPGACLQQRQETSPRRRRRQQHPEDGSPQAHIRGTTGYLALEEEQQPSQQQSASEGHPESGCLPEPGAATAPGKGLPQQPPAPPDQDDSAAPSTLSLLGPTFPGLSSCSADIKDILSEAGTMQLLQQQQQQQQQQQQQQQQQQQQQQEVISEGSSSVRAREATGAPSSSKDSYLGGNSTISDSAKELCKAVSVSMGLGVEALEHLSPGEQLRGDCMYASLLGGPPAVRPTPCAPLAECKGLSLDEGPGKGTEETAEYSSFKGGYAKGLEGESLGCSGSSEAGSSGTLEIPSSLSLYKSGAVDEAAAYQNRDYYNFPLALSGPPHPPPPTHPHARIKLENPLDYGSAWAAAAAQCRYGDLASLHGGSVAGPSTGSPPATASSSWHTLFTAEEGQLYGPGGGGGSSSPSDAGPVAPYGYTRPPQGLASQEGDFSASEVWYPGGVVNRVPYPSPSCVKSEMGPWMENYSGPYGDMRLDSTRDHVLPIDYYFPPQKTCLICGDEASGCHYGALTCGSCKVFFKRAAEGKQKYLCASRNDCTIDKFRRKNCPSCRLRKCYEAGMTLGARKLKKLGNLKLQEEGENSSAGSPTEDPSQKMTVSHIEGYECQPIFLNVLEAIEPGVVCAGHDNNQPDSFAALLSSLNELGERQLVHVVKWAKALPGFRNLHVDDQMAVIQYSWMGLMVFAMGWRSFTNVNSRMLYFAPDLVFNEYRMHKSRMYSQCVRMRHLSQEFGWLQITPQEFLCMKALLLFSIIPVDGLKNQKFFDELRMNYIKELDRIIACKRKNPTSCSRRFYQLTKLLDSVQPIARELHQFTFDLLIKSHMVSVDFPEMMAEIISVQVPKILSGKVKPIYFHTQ
Assay: not given
Conditions: not given
With CC(C)C[C@H]1C(=O)N2CCC[C@H]2[C@]2(O)O[C@](NC(=O)[C@@H]3C=C4c5cccc6[nH]cc(c56)C[C@H]4N(C)C3)(C(C)C)C(=O)N12 [ERGOCRYPTINE] the IC50 was “Not Active”. In the case of COC(=O)Nc1nc2cc(C(=O)c3ccc(F)cc3)ccc2[nH]1 [FLUBENDAZOLE], the IC50 is reported as “Not Active”. In the case of CC(=O)OCC(=O)[C@@]1(O)CC[C@H]2[C@@H]3CCC4=CC(=O)CC[C@]4(C)[C@@]3(F)[C@@H](O)C[C@@]21C [FLUDROCORTISONE ACETATE], the IC50 is reported as “Not Active”. For CCOC(=O)c1ncn2c1CN(C)C(=O)c1cc(F)ccc1-2 [FLUMAZENIL], the IC50 was “Not Active”. With Cc1ccc(C)c(OCCCC(C)(C)C(=O)O)c1 [GEMFIBROZIL] the IC50 was “Not Active”.
